Measured values published in patent US9034859B2, “Sulfated oxysterol and oxysterol sulfation by hydroxysterol sulfotransferase promote lipid homeostasis and liver proliferation” (Virginia Commonwealth University, priority 2011, dated 2015).
“And” between values parts separate entries of the source, which are not always exact repeats. Equal entries are not always repeated.

Experiments:
[1] = test system: apoptotic and cell cycle related genes; experiment: Mouse Cell cycle RT2 Profiler PCR Array of liver tissues; assay type: in vivo, C57BL/6 mice; conditions: 5 mg/kg, versus vehicle
Description: The real-time PCR array was performed using the Mouse Cell cycle RT2 Profiler™ PCR Array consisting of 84 key genes involved in apoptosis and proliferation as the manufacturer's instruction (SABiosciences, Frederick, Md.). Total mRNA was reverse-transcribed to cDNA as described above. Three of biologically-distinct specimens were pooled to reduce variance. The cDNA was then amplified precisely like real-time PCR in the primers-preloaded PCR plates on the ABI 7500 Fast Real-Time PCR System. ΔΔCT values between different stimulated samples were analyzed as the manufacturer's instruction, which output p-values for fold-regulation change.

[2] = test system: lipogenic gene expression; experiment: Relative hepatic mRNA expression by real-time RT-PCR, long-term treatment; assay type: in vivo, C57BL/6J female mice; conditions: liver, HFD mice
Description: (§1) Animal studies were approved by Institutional Animal Care and Use Committee of McGuire Veterans Affairs Medical Center and were conducted in accordance with the Declaration of Helsinki, the Guide for the Care and Use of Laboratory Animals, and all applicable regulations. To examine the effect of 25HC3S on diet-induced lipid accumulation in sera and liver, 8-week-old female C57BL/6J mice (Charles River, Wilmington, Mass.) were randomly assigned to three groups: the first control group was fed a chow diet; the high fat diet (HFD) group was fed a HFD (Harlan Teklad, Madison, Wis.) containing 42% kcal from fat, 43% kcal from carbohydrate, 15% kcal from protein and 0.2% cholesterol; and the high cholesterol diet (HCD) group was fed a 2% cholesterol diet with 18% kcal from fat, 58% kcal from carbohydrate and 24% kcal from protein for 10 weeks, respectively. All mice were housed under identical conditions in an aseptic facility and given free access to water and food. At the end of each period, the mice were intraperitoneally injected with vehicle solution (ethanol/PBS; Vehicle), 25HC (25 mg/kg), or 25HC3S (25 mg/kg) for 2 times and fasted over night for acute treatment (n=15-17 for each group) or once every three days for 6 weeks (n=16 for each group) and fasted 5 hrs for long-term treatment; and blood samples were collected. Serum triglyceride, total cholesterol, high density lipoprotein-cholesterol, glucose, alkaline phosphatase (ALK), alanine aminotransferase (ALT), and aspartate aminotransferase (AST) were measured using standard enzymatic techniques in the clinical laboratory at McGuire Veterans Affairs Medical Center. Lipoprotein profiles in sera were analyzed by HPLC as following described.
Total RNA was isolated with SV Total RNA Isolation Kit (Promega, Madison, Wis.), which included DNase treatment. Total RNA, 2 μg, was used for the first-strand cDNA synthesis as recommended by the manufacturer (Invitrogen, Carlsbad, Calif.). Real-time RT-PCR was performed using SYBR Green as indicator on ABI 7500 Fast Real-Time PCR System (Applied Biosystems, Foster City, Calif.). All primer/probe sets for real-time PCR were TaqMan gene expression assays (Applied Biosystems, Foster City, Calif.). Amplifications of β-actin and GAPDH were used as internal controls. Relative messenger RNA (mRNA) expression was quantified with the comparative cycle threshold (Ct) method and was expressed as 2^−ΔΔCt. Suitable primers were utilized.

[3] = Quantification of hepatic lipids and liver morphology, long-term treatment; assay type: in vivo, C57BL/6J female mice; conditions: HFD mice
Description: as §1
For each mouse, three specimens from different regions of the liver were collected and fixed in 4% paraformaldehyde in 0.1 M phosphate buffer at room temperature overnight. The regions of the specimens were standardized for all mice. The paraffin-embedded tissue sections (4 μm) were stained with hematoxylin and eosin.
Liver tissues were homogenized, and lipids were extracted with a mixture of chloroform and methanol (2:1), and filtered. The extracts, 0.2 ml, were evaporated to dryness and dissolved in 100 μl of isopropanol containing 10% of triton X-100 for cholesterol assay (Wako Chemicals USA, Richmond, Va.), the NEFA solution (0.5 g of EDTA-Na2, 2 g of Triton X-100, 0.76 ml of 1N NaOH, and 0.5 g of sodium azide/1, pH 6.5) for free fatty acid assay (Wako Chemicals USA, Richmond, Va.), or isopropanol only for triglyceride assay (Fisher Scientific, Pittsburgh, Pa.). All of the assays were performed according to the manufacturer's instructions, respectively. Each lipid concentration was normalized to liver weight.

[4] = once every three days for 6 weeks, mean ± SD, n=5-6

## CC(CCCC(C)(C)O)C1CCC2C3CC=C4CC(OS(=O)(=O)O)CCC4(C)C3CCC12C (centres unmarked) [25HC3S, 25-hydroxycholesterol-3-sulfate]
[1]; 48 h
  decrease of Apaf1 expression: 3 fold
  decrease of Chek2 expression: 4.5 fold
[1]; 2 days, pooled mRNA
  Fold change Apaf1(NM_009684): −3.21 fold
  Fold change Atr(NM_019864): −2.15 fold
  Fold change Bag1(NM_009736): 2.0488 fold
  Fold change Bnip3(NM_009760): 2.0112 fold
  Fold change Brca1(NM_009764): −1.87 fold
  Fold change Ccnb2(NM_007630) Cyclin B2: 1.90 fold
  Fold change Ccne2(NM_009830) Cyclin E2: 2.52 fold
  Fold change Cdc25a(NM_007658): 1.53 fold
  Fold change Cdc25c(NM_009860): 1.56 fold
  Fold change Cdkn1a(NM_007669): 3.0411 fold
  Fold change Chek2(NM_016681): −4.65 fold
  Fold change E2f3(NM_010093): 2.0193 fold
  Fold change Ep300(NM_177821): 1.8114 fold
  Fold change Esr1(NM_007956): 2.2535 fold
  Fold change Gadd45a(NM_007836): −1.59 fold
  Fold change Hif1a(NM_031168): 1.7576 fold
  Fold change Mdm2(NM_010786): 1.6222 fold
  Fold change Myod1(NM_010866): 1.56 fold
  Fold change Nf1(NM_010897): 2.10 fold
  Fold change Pcna(NM_011045): 3.7 fold and 3.77 fold
  Fold change Prkca(NM_011101): 2.29 fold
  Fold change Tnf(NM_013693): −2.76 fold
  Fold change Tnfrsf10b(NM_020275): −2.28 fold
  Fold change Trp73(NM_011642): 2.5194 fold
  Fold change Wt1(NM_144783): 3.9 fold and 3.90 fold
  Fold change Xrcc5(NM_009533): −1.90 fold
[2]; long-term treatment
  decrease of ACC1 mRNA level: 41%
  decrease of CD36 mRNA: 49%
  decrease of FAS mRNA level: 24%
  decrease of GPAM mRNA: 19%
  decrease of SREBP-1c mRNA level: 23%
  suppression of IL1α expression: 53%
  suppression of IL1β expression: 58%
  suppression of TNFα expression: 47%
[2]; [4]
  ABCA1 relative hepatic mRNA: 0.80 ± 0.12
  ABCG1 relative hepatic mRNA: 0.72 ± 0.19
  ACC1 relative hepatic mRNA: 0.63 ± 0.08
  CD36 relative hepatic mRNA: 0.47 ± 0.08
  FAS relative hepatic mRNA: 0.73 ± 0.16
  GPAM relative hepatic mRNA: 0.81 ± 0.10
  IL1α relative hepatic mRNA: 0.54 ± 0.14
  IL1β relative hepatic mRNA: 0.58 ± 0.27
  IκBα relative hepatic mRNA: 1.48 ± 0.38
  LDLR relative hepatic mRNA: 0.79 ± 0.13
  LXRα relative hepatic mRNA: 0.95 ± 0.24
  MTTP relative hepatic mRNA: 0.78 ± 0.09
  NFκB relative hepatic mRNA: 0.86 ± 0.22
  PLTP relative hepatic mRNA: 0.60 ± 0.11
  SRB1 relative hepatic mRNA: 0.87 ± 0.20
  SREBP-1c relative hepatic mRNA: 0.76 ± 0.08
  TNFα relative hepatic mRNA: 0.60 ± 0.34
[3]
  hepatic cholesterol ester concentration: not affected
  lipid inclusions in liver (H&E morphology): significantly decreased
[3]; normalized by liver weight
  reduction of hepatic free cholesterol: 28%
  reduction of hepatic free fatty acid: 23%
  reduction of hepatic total cholesterol: 15%
  reduction of hepatic triglyceride: 30%
